From ChEMBL document CHEMBL1201862, “PubChem BioAssay data set” (2004) come the findings set out here.

Among the test systems are 786-0; NCI-H226; NCI/ADR-RES; DU-145; SK-MEL-5; T47D; SF-295; UACC-62; HT-29; CAKI-1; OVCAR-5; OVCAR-8; MDA-MB-435; CCRF-CEM; IGROV-1; UACC-257; MDA-MB-231; COLO 205; OVCAR-4; BT-549.
What all share (test): NCI-60 cell line screen, 48 h

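Grown in 96-well plates, cells were treated for 48 hours with each compound at five concentrations. Insufficient inhibition: endpoint recorded as highest concentration tested. At the GI50, growth is halved.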 Calls of active or inactive are those of the source. Cut-off read from the data, not from the text of the source: active = GI50 up to about 1.1 µM and inactive = higher. Some results are limits rather than exact numbers.

For the compound `CCOC(=O)c1ccc(Nc2nc3ccc(C(F)(F)F)cc3nc2-c2ccccc2)cc1`, the GI50 is > 100 µM (inactive) in the experiment on 786-0; > 100 µM (inactive) with NCI-H226; > 100 µM (inactive) in the experiment on NCI/ADR-RES; > 100 µM (inactive) with DU-145; > 100 µM (inactive) with SK-MEL-5; 20.5 µM (inactive) with T47D. Moreover, the GI50 in the experiment with SF-295 was 56.8 µM (inactive); in the experiment with UACC-62 it was 28.2 µM (inactive); with HT-29, 67.9 µM (inactive); with CAKI-1, > 100 µM (inactive); in the experiment with OVCAR-5, > 100 µM (inactive); in the experiment on OVCAR-8, > 100 µM (inactive). For the same compound, the GI50 with MDA-MB-435 is > 100 µM (inactive); in the experiment on CCRF-CEM, 63.4 µM (inactive); in the experiment on IGROV-1, 71.9 µM (inactive); in the experiment on UACC-257, > 100 µM (inactive).

On to `O=C(O)c1cccc(S(=O)(=O)NN2C(=O)CSC2c2c(O)ccc3ccccc23)c1` (stereo not given), for which the GI50 in the experiment with MDA-MB-231 is 26.8 µM (inactive); in the experiment with 786-0, 39.4 µM (inactive); in the experiment with NCI-H226, 34.8 µM (inactive); with NCI/ADR-RES, 22.1 µM (inactive); in the experiment on COLO 205, 38 µM (inactive); in the experiment on DU-145, 44.7 µM (inactive). In addition, the GI50 in the experiment on SK-MEL-5 was 21 µM (inactive); in the experiment on T47D, 22.5 µM (inactive); in the experiment on SF-295 it was 29.3 µM (inactive); in the experiment with UACC-62, 27 µM (inactive); in the experiment on HT-29, 29.9 µM (inactive); with CAKI-1, 25.5 µM (inactive). Moreover, the GI50 in the experiment on OVCAR-4 is 28.9 µM (inactive); with OVCAR-5, 79.3 µM (inactive); in the experiment with OVCAR-8, < 0.01 µM (active); with MDA-MB-435, 37.6 µM (inactive); in the experiment with CCRF-CEM, 16 µM (inactive); in the experiment on IGROV-1 it was 18 µM (inactive). Also, in the experiment with UACC-257, the GI50 is 56.4 µM (inactive).

In the case of `CC(=O)c1sc2[n+](c1C)C(=O)/C(=C\c1ccccc1Cl)S2`, the GI50 is 25.4 µM (inactive) in the experiment on MDA-MB-231; 21.9 µM (inactive) in the experiment with 786-0; 13.3 µM (inactive) in the experiment with NCI-H226; 21 µM (inactive) in the experiment on NCI/ADR-RES; 14.9 µM (inactive) in the experiment on COLO 205; 18.7 µM (inactive) in the experiment on DU-145. Further, the GI50 in the experiment on SK-MEL-5 is 11.3 µM (inactive); in the experiment with T47D, 15.7 µM (inactive); with SF-295, 16 µM (inactive); in the experiment on UACC-62 it was 13.1 µM (inactive); in the experiment with HT-29, 20.6 µM (inactive); in the experiment on CAKI-1 it was 24.5 µM (inactive). The GI50 in the experiment with OVCAR-4 is 29.2 µM (inactive); in the experiment on OVCAR-5, 24.3 µM (inactive); in the experiment on OVCAR-8 it was 24.3 µM (inactive); in the experiment on MDA-MB-435, 15.3 µM (inactive); in the experiment on CCRF-CEM it was 27.6 µM (inactive); in the experiment on IGROV-1, 18.3 µM (inactive). Further, the GI50 with UACC-257 was 19.4 µM (inactive).

With `CC1CC(=O)Nc2ccccc2N1C(=O)CN1CCC(CCCCN(C)C)CC1` (stereo not given), the GI50 in the experiment with 786-0, in the experiment with NCI-H226, with COLO 205, in the experiment with SK-MEL-5, in the experiment on SF-295 and in the experiment with UACC-62 was > 100 µM (inactive) in each case. In addition, the GI50 with HT-29, in the experiment on CAKI-1, in the experiment on OVCAR-4, with OVCAR-5, in the experiment with OVCAR-8 and in the experiment on CCRF-CEM was > 100 µM (inactive) each time. Besides, the GI50 in the experiment on IGROV-1 and in the experiment on UACC-257 was > 100 µM (inactive) each time.

Consider `C[n+]1c2ccccc2c(CNC(CS)C(=O)O)c2ccccc21` (stereo not given), for which the GI50 is 31.8 µM (inactive) in the experiment with 786-0; 29.8 µM (inactive) in the experiment on NCI-H226; 19.2 µM (inactive) in the experiment with COLO 205; > 10 µM (inactive) with SK-MEL-5; 24.2 µM (inactive) in the experiment with SF-295; 14.6 µM (inactive) with UACC-62. For the same compound, the GI50 is 29.3 µM (inactive) with HT-29; 29.6 µM (inactive) with CAKI-1; 28.1 µM (inactive) in the experiment on OVCAR-4; 44.5 µM (inactive) in the experiment with OVCAR-5; 25.4 µM (inactive) in the experiment on OVCAR-8; 24.4 µM (inactive) with CCRF-CEM. Moreover, the values for the GI50 with IGROV-1 and with UACC-257 were 18.8 µM (inactive) and 38.5 µM (inactive), respectively.

As to `Cc1ccc(S(=O)(=O)NC(=O)NCc2ccc(S(N)(=O)=O)cc2)cc1`, the GI50 in the experiment on MDA-MB-231, in the experiment on 786-0, with NCI-H226, with NCI/ADR-RES, in the experiment on COLO 205 and with DU-145 was > 100 µM (inactive) in each case. The GI50 in the experiment on SK-MEL-5, in the experiment with T47D, in the experiment with SF-295, in the experiment on UACC-62, in the experiment with HT-29 and with CAKI-1 was > 100 µM (inactive) in each case. Besides, the GI50 in the experiment on OVCAR-4, in the experiment with OVCAR-5, in the experiment on MDA-MB-435 and in the experiment with IGROV-1 was > 100 µM (inactive) throughout.

For the compound `[O-][S+](c1ccccc1)C1CC2CC3(CCC21O)OCCO3` (stereo not given), the GI50 with MDA-MB-231, in the experiment on 786-0, in the experiment on NCI-H226, in the experiment with NCI/ADR-RES, in the experiment on COLO 205 and in the experiment on DU-145 was > 100 µM (inactive) throughout. The GI50 with SK-MEL-5, with T47D, in the experiment with SF-295, with UACC-62, with HT-29 and with CAKI-1 was > 100 µM (inactive) throughout. Besides, the GI50 in the experiment on OVCAR-4, in the experiment with OVCAR-5, in the experiment with OVCAR-8, in the experiment on MDA-MB-435, with CCRF-CEM and with IGROV-1 was > 100 µM (inactive) throughout. Moreover, the GI50 in the experiment on UACC-257 was > 100 µM (inactive).

As to `C[S+]=c1sc2ccccc2s1`, the GI50 with 786-0, with NCI-H226, with COLO 205, with SK-MEL-5, in the experiment on SF-295 and in the experiment with UACC-62 was > 100 µM (inactive) in each case. Besides, the GI50 in the experiment on HT-29, with CAKI-1, with OVCAR-4, with OVCAR-5, with OVCAR-8 and in the experiment on CCRF-CEM was > 100 µM (inactive) throughout. The GI50 in the experiment on IGROV-1 and with UACC-257 was > 100 µM (inactive) throughout.

Take `Cc1ccc(S(=O)(=O)N/N=C2\C(=O)C3CC2C(Cl)C3Cl)cc1` (stereo not given): the GI50 with 786-0, in the experiment with NCI-H226, in the experiment on COLO 205, in the experiment with SK-MEL-5, in the experiment with SF-295 and in the experiment with UACC-62 was > 100 µM (inactive) in each case. Moreover, the GI50 in the experiment with HT-29, in the experiment with CAKI-1, in the experiment with OVCAR-4, in the experiment on OVCAR-5, in the experiment with OVCAR-8 and in the experiment with CCRF-CEM was > 100 µM (inactive) in each case. Moreover, the GI50 with IGROV-1 and in the experiment on UACC-257 was > 100 µM (inactive) in each case.

With `C[n+]1c(-c2ccccc2)cc2/c(=C\c3ccccc3)c3ccccc3n21`, the GI50 in the experiment on MDA-MB-231 was 0.661 µM (active); with 786-0, 0.906 µM (active); in the experiment on NCI-H226 it was 0.418 µM (active); in the experiment with NCI/ADR-RES, 14.6 µM (inactive); in the experiment on COLO 205, 0.339 µM (active); in the experiment with DU-145 it was 2.54 µM (inactive). Besides, the GI50 was 0.667 µM (active) in the experiment with SK-MEL-5; 4.93 µM (inactive) in the experiment with SF-295; 1.3 µM (inactive) in the experiment with UACC-62; 1.06 µM (active) in the experiment on HT-29; 2.94 µM (inactive) with CAKI-1; 1.62 µM (inactive) with OVCAR-4. In addition, the GI50 in the experiment on OVCAR-5 was 3.4 µM (inactive); in the experiment on OVCAR-8, 0.361 µM (active); in the experiment with MDA-MB-435, 0.726 µM (active); with CCRF-CEM, 0.582 µM (active); in the experiment with IGROV-1, 1.09 µM (active); in the experiment on UACC-257, 0.991 µM (active).

As for `C[C@]12CCC(=O)C(OC(=O)c3ccc([N+](=O)[O-])cc3)=C1CCC2=O`, the GI50 with 786-0 is > 100 µM (inactive); with NCI-H226, 95.5 µM (inactive); in the experiment on COLO 205, 98.6 µM (inactive); in the experiment on SK-MEL-5, > 100 µM (inactive); in the experiment on SF-295, > 100 µM (inactive); in the experiment on UACC-62, > 100 µM (inactive). The GI50 with HT-29, with CAKI-1, in the experiment on OVCAR-4, in the experiment with OVCAR-5, with OVCAR-8 and with CCRF-CEM was > 100 µM (inactive) in each case. Also, the GI50 with IGROV-1 and in the experiment with UACC-257 was > 100 µM (inactive) in each case.

As to `CC(=O)Oc1c(C)cc(-c2cc(C)c(OC(C)=O)c(C)c2)cc1C`, the GI50 with 786-0 is 36.3 µM (inactive); in the experiment on NCI-H226 it was 29.7 µM (inactive); in the experiment with NCI/ADR-RES, 21.1 µM (inactive); in the experiment with COLO 205 it was 50.4 µM (inactive); in the experiment with BT-549, 10.8 µM (inactive); in the experiment with DU-145, 41.7 µM (inactive). Also, the GI50 was 25.4 µM (inactive) in the experiment with SK-MEL-5; 23.7 µM (inactive) with SF-295; 23 µM (inactive) with UACC-62; 45.4 µM (inactive) in the experiment with HT-29; 57.9 µM (inactive) with CAKI-1; 82.6 µM (inactive) in the experiment on OVCAR-4. Moreover, the GI50 is 43.7 µM (inactive) in the experiment on OVCAR-5; 37.1 µM (inactive) with OVCAR-8; 3.05 µM (inactive) in the experiment with MDA-MB-435; 31 µM (inactive) with CCRF-CEM; 40.9 µM (inactive) in the experiment on IGROV-1; 41.6 µM (inactive) with UACC-257.
